Test results from PMC11641755, “Features of Highly Homologous T-Cell Receptor Repertoire in the Immune Response to Mutations in Immunogenic Epitopes” (International Journal of Molecular Sciences, 2024).

Key:
Format in all cases: cell-based, human
[1] = tested on: TCR NYN-2 (Jurkat E6-1 TPR cells)
[2] = tested on: TCR NYN-3 (Jurkat E6-1 TPR cells)
[3] = tested on: NYN peptide-specific TCRs (NYN-1 to NYN-4 Jurkat E6-1 TPR cell lines)
[4] = tested on: TCR NYN-1 (Jurkat E6-1 TPR cells)

| Sequence | effect of the mutation on response / affinity of NYN-2 (in words) [1] | effect of the mutation on response / affinity of NYN-3 (in words) [2] | effect of the mutation on the T-cell response / recognition (in words) [3] | effect of the mutation on response / affinity of NYN-1 (in words) [4] |
| --- | --- | --- | --- | --- |
| NYDYWYRLF [N450D + L452W] | increased the affinity | increased the affinity | did not affect the T-cell response | – |
| NYDYMYRLF [N450D + L452M] | slightly disrupted the response | slightly disrupted the response | – | not |
